For test [1], the target named is Induced myeloid leukemia cell differentiation protein Mcl-1 (Homo sapiens, UniProt Q07820). Format: functional.
Test [2] is described as follows: reduction of Shn3 3'UTR-driven luciferase in osteoblasts – cell-based, Clone20 osteoblasts, firefly luciferase, cherry-picked, dose response (AID 624132).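 Note: firefly luciferase luminescence from reporter carrying the Shn3 3'UTR in osteoblasts.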 Format: functional.
Test [3] can be described thus: loss of viability in HepG2 cells – cell-based, CellTiter-Glo, cherry-picked, cytotoxicity control for Shn3 inhibitor project, dose response (AID 624134). Type of test: functional.
A short description of test [4]: non-specific 3'UTR reporter inhibition in Clone20-Shn3RL – cell-based, Renilla luciferase, cherry-picked, counter-screen for Shn3 inhibitor project, dose response (AID 624133). Format: functional.
Test [5] concerns the target T1, Short transient receptor potential channel 4 (Mus musculus, UniProt Q9QUQ5).
T1 sequence (Q9QUQ5 whole entry): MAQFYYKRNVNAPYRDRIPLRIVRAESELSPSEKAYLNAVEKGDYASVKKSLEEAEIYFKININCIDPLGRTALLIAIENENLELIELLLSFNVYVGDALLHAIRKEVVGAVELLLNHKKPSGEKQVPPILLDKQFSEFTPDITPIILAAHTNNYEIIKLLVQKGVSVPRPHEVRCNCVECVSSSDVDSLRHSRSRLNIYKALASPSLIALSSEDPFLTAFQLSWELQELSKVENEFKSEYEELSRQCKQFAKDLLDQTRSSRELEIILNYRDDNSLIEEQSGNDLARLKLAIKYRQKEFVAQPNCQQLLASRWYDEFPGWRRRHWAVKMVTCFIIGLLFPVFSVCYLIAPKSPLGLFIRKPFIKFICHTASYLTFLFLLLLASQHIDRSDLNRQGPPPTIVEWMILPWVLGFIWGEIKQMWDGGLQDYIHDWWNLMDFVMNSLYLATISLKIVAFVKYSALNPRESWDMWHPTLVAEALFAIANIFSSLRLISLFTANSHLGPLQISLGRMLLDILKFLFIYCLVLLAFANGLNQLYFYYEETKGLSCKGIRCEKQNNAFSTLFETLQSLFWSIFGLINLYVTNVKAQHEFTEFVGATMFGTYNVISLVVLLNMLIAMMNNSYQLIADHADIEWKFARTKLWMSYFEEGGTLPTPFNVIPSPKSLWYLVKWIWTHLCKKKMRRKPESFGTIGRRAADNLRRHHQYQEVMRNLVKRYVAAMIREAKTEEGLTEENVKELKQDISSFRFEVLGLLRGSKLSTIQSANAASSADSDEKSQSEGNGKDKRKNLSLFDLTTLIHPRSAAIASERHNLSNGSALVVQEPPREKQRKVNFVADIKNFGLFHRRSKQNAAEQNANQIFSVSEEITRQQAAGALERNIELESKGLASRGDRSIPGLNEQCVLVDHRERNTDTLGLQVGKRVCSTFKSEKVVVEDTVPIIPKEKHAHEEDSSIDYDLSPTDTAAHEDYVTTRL
Nature of the test: calcium entry via TRPC4 opening agents – cell-based, HEK293 TRPC4/mu-opioid, Fluo-4 calcium, dose response (AID 434937). Format: functional.

Test [6] in a line: HEK-293T viability loss after treatment – luminescence, T-cell screen hits, cytotoxicity control for TCR NF-kB inhibitor project, dose response (AID 489026).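 Note: cells exposed to compound about 14 hours before the viability readout.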 Type of test: functional, cell-based.
Test [7] concerns the target T2, RNA-binding protein pos-1 (Caenorhabditis elegans, UniProt G5EF15).
T2 sequence (G5EF15 whole entry): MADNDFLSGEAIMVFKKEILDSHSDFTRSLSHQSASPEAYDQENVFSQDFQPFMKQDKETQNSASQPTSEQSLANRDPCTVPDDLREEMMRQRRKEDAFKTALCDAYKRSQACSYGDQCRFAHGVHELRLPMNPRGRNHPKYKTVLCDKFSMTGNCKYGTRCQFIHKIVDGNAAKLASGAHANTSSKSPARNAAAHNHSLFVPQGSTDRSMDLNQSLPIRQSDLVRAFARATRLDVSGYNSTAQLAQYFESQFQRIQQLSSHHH
Briefly: disruptors of C. elegans POS-1 RNA interaction – biochemical, fluorescence polarization, dose response (AID 1964).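 Note: purified POS-1 fused to maltose binding protein made in E. coli; potency of compounds blocking POS-1 binding to fluorescent RNA.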

Test [8] addresses T3, Zinc finger protein mex-5 (Caenorhabditis elegans, UniProt Q9XUB2).
T3 sequence (Q9XUB2 whole entry): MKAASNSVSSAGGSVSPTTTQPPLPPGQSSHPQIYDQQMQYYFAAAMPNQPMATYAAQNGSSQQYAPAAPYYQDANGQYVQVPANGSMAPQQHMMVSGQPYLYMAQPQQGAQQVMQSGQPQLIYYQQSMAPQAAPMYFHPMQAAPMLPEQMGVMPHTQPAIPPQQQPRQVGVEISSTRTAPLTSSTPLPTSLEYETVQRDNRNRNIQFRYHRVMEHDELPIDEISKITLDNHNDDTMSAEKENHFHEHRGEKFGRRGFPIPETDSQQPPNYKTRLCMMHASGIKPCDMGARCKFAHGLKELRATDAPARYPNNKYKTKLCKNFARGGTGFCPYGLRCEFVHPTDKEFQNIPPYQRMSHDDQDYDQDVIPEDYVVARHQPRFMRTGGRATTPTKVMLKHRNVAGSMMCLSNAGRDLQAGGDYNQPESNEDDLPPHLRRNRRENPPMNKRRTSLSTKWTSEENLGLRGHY
Briefly: potency of MEX-5 RNA-binding blockers – biochemical, C. elegans, fluorescence polarization, dose response (AID 1960).

For the next test, the system named is HEK293. Nature of the test: EBV LMP1 TES2 canonical NF-kB signalling blockers – cell-based, HEK293, luciferase, cherry-pick, dose response (AID 588343). Format: functional. The settings on record: Homo sapiens.
The next test deals with Nonstructural protein 1 (Influenza A virus, UniProt Q194T2). Type of test: functional, Influenza A virus (A/California/07/2009(H1N1)).
Sequence of Nonstructural protein 1 (Q194T2 whole entry): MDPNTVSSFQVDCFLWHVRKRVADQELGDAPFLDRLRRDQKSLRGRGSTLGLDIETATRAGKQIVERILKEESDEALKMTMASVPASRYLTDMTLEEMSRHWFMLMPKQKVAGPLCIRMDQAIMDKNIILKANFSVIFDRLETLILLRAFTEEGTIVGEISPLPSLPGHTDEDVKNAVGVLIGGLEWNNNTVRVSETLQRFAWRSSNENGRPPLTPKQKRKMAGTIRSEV
For test [9], the system named is Streptococcus sp. 'group A'. Nature of the test: Streptococcus pyogenes SK(-)GAS viability under kanamycin – luminescence, BacTiterGlo, confirmation, counter-screen for streptokinase expression inhibitor project, dose response (AID 1900). Type of test: functional, organism-based.
Another test deals with Streptococcus. Nature of the test: GAS UMAA2166 growth inhibition – luminescence, BacTiterGlo, counter-screen for streptokinase expression inhibitor project, dose response (AID 1915).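 Note: potency for reduction of bacterial viability or growth.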 Type of test: functional, organism-based.
A further test deals with P388/ADR. Nature of the test: cells. Type of test: functional. To be noted: Mus musculus.
For the next test, the system named is SN12K1. Briefly: cells. Format: functional. To be noted: Homo sapiens.
Another test relates to P388. Nature of the test: cells. Type of test: functional. To be noted: Mus musculus.
The nature of test [10]: growth inhibition of yeast DHODH-expressing 3D7 parasites – SYBR Green, dry powder samples, dose response (AID 1159570).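 Note: parasite growth measured after 72 hours of compound exposure.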 Type of test: functional, cell-based.
Test [11] is described as follows: P. falciparum Dd2 growth inhibitors, dose response, SYBR Green, cherry-picked samples (AID 1159567). Format: functional, cell-based.
A short description of test [12]: Dd2 malaria parasite growth inhibition potency – SYBR Green, dry powder samples, dose response (AID 1159566).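 Note: potency for growth inhibition with lower SYBR green DNA signal.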 Format: functional, cell-based.
Test [13] in a line: growth inhibition of PfATP4-mutant resistant parasites – NITD609-resistant line, SYBR Green, dry powder, dose response (AID 1159571).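 Note: parasites synchronized at ring stage by sorbitol before testing.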 Format: functional, cell-based.
The nature of test [14]: luciferase reporter signal suppression in cells – H4 neuroglioma cells, luminescence, dose response (AID 1990). Type of test: functional, cell-based.
Test [15] is described as follows: Luminescence Cell-Based Dose Response HTS to Identify Inhibitors of 5'UTR Stem-Loop Driven Prion Protein mRNA Translation in H4 Neuroglioblastoma Cells. [Related pubchem assays: 1827 (Project Summary), 1813 (Primary HTS)]. Format: functional.
Test [16] can be described thus: alpha-synuclein stem-loop luciferase translation blockers – H4 neuroglioma cells, luminescence, confirmation (AID 1988). Type of test: functional, cell-based.
A short description of test [17]: microbe, parasite or virus in culture. Format: functional. To be noted: Mycobacterium tuberculosis.
The test system of a further test is INS1. Nature of the test: INS-1E survival protection against cytokine death – cell-based, luminescence, retest, dose response (AID 449756).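 Note: cell death triggered by IL-1 beta plus TNF-alpha plus IFN-gamma mixture; protective hits raise ATP signal compared with cytokine alone wells.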 To be noted: Rattus norvegicus. Type of test: functional.
A further test deals with Paired box protein Pax-8 (Homo sapiens, UniProt Q06710). Briefly: PAX8 transcriptional activity inhibition in RMG-I – RMG-I cells, luciferase, cherry-pick, dose response (AID 687027).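 Note: luciferase reporter driven by Pax8 target thyroperoxidase promoter measured by SteadyGlo luminescence.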 Type of test: functional, cell-based.
Sequence of Paired box protein Pax-8 (Q06710 whole entry): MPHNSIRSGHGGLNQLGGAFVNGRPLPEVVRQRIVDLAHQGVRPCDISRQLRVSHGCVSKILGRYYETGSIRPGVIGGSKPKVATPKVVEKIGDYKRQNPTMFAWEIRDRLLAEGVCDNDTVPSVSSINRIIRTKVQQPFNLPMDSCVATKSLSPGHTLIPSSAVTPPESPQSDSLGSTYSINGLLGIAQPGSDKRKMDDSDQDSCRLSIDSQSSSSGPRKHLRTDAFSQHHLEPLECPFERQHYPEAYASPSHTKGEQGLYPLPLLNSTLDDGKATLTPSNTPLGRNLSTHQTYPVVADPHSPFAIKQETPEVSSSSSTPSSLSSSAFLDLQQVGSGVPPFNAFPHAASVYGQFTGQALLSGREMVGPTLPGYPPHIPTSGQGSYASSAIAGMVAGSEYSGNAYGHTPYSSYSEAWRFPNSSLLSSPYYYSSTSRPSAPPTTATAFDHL

SMILES strings stand for the structures. The source made the active and inactive calls.

Sequence of Induced myeloid leukemia cell differentiation protein Mcl-1 (Q07820 whole entry): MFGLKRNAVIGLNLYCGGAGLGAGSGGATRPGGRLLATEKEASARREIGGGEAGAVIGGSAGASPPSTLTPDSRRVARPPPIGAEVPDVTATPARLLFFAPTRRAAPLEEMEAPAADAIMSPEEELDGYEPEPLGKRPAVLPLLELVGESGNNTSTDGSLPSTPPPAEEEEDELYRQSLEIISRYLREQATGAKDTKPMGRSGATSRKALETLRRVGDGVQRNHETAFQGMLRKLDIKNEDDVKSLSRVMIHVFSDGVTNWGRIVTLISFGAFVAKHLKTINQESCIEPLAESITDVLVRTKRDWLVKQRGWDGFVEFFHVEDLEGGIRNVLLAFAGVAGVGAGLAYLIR

On to `CCC(C)N1C(=O)/C(=C/c2ccc3c(c2)CCN3CCCCl)C(=O)NC1=S` (stereo not drawn), for which the IC50 in test [1] was 5.31 µM (active).

With `Cc1cc(C)c(-c2csc(NC(=O)CCCc3nc(O)c4ccccc4n3)n2)c(C)c1`, the values for the AC50 in test [2], in [3] and in test [4] were 2.97 µM (active), > 70 µM (inactive) and 5.38 µM (active), respectively.

Take `Cc1onc(-c2ccccc2Cl)c1C(=O)N1CCN(C/C=C/c2ccccc2)CC1`: the EC50 in test [5] is 5.96 µM (active).

As for `CC1Sc2ccc(S(=O)(=O)N3CCC(C(=O)Nc4cccc(Cl)c4)CC3)cc2NC1=O` (stereo not drawn), the results for the half-maximal activity concentration (AC50) in test [2], in test [3] and in test [4] were 3.27 µM (active), 44.6 µM (active) and 8.77 µM (active), respectively.

As to `CCOc1ccccc1CN1CCNC(=O)C1CC(=O)N(C)CCc1ccccn1` (stereo not drawn), the concentration for a half-maximal effect (EC50) in test [5] was 2.11 µM (active).

As to `Cc1ccc(O)c(NC(=O)CCC2CCCCC2)c1`, the IC50 in [6] was > 80 µM (inactive).

Regarding `CC1=NN(C(N)=S)C(=O)C1N=Nc1cccc(C(=O)O)c1` (stereo not drawn), the EC50 in [7] was 35.1 µM (active); in test [8], 22.7 µM (active). Moreover, in the test with HEK293, the AC50 is 33.1 µM (active).

For the compound `CN1CCN(c2cc(N3CCCCCC3)c(F)cc2[N+](=O)[O-])CC1`, the IC50 on Nonstructural protein 1 was > 100 µM (active).

In the case of `CC1Cc2ccccc2N1c1ncnc(N)c1[N+](=O)[O-]` (stereo not drawn), in the test on HEK293, the AC50 is 2.41 µM (active).

On to `Cc1ccccc1OCC(=O)NNC(=S)NC(=O)c1ccco1`, for which the EC50 in test [9] is 0.599 µM (active); in the test with Streptococcus it was 2.45 µM (active); in test [5], 9.44 µM (active).

On to `CN1CCN(C(=O)c2cccc(-c3cc(O)c4ncccc4c3)c2)CC1`, for which, at Nonstructural protein 1, the IC50 is 11.4 µM (active).

Regarding `CCOC(=O)[C@@H]1CCNC[C@@H]1c1ccccc1`, the EC50 in test [5] is 3.35 µM (active).

`CN(Cc1nccn1C)C(=O)c1cc(COc2ccc3ncccc3c2)on1`: the values for the AC50 in test [2], in [3] and in test [4] were 6.97 µM (active), > 70 µM (inactive) and 36.8 µM (active), respectively.

Regarding `CC(C)CCCCCCCCCCCCC(=O)NCC(=O)NC1C(O)C(O)C(Nc2[nH]cnc3ncnc2-3)OC1C(O)CO` (stereo not drawn), the values for the 50% growth inhibitory concentration (GI50) in the test on P388/ADR, with SN12K1 and in the test on P388 were 0.00128 µM (active), 0.00531 µM (active) and 0.000211 µM (active), respectively.

For `CCC/C=C/C=C/C(=O)OC1/C(=C/C(=O)OC)CC2CC(C(C)O)OC(=O)CC(O)CC3CC(OC(C)=O)C(C)(C)C(O)(CC4C/C(=C/C(=O)OC)CC(/C=C/C(C)(C)C1(O)O2)O4)O3` (stereo not drawn), the GI50 in the test with P388 is 2.16 µM (inactive).

On to `C=C1C(=O)OC2C=C(C)CC3C=C(CCC=C(C)CCC12)C(=O)O3` (stereo not drawn), for which the values for the GI50 in the test with P388/ADR, in the test on SN12K1 and in the test on P388 were 22.1 µM (inactive), 58.3 µM (inactive) and 12.4 µM (inactive), respectively.

As to `CC(C)(C)OC(=O)NC1CCC(C(C)(C)C)CC1` (stereo not drawn), the figures for the GI50 with P388/ADR, with SN12K1 and with P388 were 30 µM (inactive), 45.4 µM (inactive) and 15.9 µM (inactive), respectively.

For `CC(=O)OC1C(O)C(C)OC(OC(=O)C2CCC3C(C2)OC2(CC(OC(=O)/C=C/c4ccccc4)C(C)CO2)C32CO2)C1OC1OC(C)C(O)C(O)C1O` (stereo not drawn), the values for the GI50 with P388/ADR, in the test with SN12K1 and in the test on P388 were 20.9 µM (inactive), 0.0348 µM (active) and 0.306 µM (active), respectively.

Take `C#CC[N+](CCO)(CCO)CCCCCCCCCCCCCCCCCC`: the GI50 in the test with P388/ADR is 8.55 µM (inactive); with SN12K1, 13 µM (inactive); in the test on P388 it was 1.08 µM (active).

As to `CC(C)(C)[S@@+]([O-])N1Cc2cc(C(=O)NCCc3ccncc3)nc(-c3cccc(-c4ccccc4)c3)c2[C@H]1CCO`, the AC50 in [10] is 1.08 µM (active); in [11], 0.414 µM (active); in [12] it was 0.366 µM (active); in [13], 0.537 µM (active).

As for `CC1OC(CO)(n2cnc3c(N)ncnc32)C(O)C1O` (stereo not drawn), the GI50 in the test with P388/ADR, in the test on SN12K1 and with P388 was > 100 µM (inactive) each time.

Take `CCCCCCCCn1c2c(c(=N)c3c1CCC3)CCCC2`: the EC50 is 4.15 µM (active) in [14], 32.4 µM (active) in test [15] and 7.18 µM (active) in [16]. The CC50 in test [17] was 32.7 µM (active). In addition, in test [6], the IC50 was 73.8 µM (inactive). The half-maximal activity concentration (AC50) in the test with INS1 is < 0.195 µM (active); on Paired box protein Pax-8 it was 2.36 µM (active).

The values are drawn from ChEMBL document CHEMBL1201862, “PubChem BioAssay data set” (2004).
